Entries after “also recorded” stand apart in the source; their conditions may differ. Like-named read-outs stand apart in the source and are kept apart here.
Key:
Type in all cases: cell-based
[1] = tested on: planktonic Candida cells; assay: Planktonic antifungal sensitivity of Candida spp.; conditions: all species tested
Procedure: (§1) Three clinical isolates of Candida were used in this study, including one albicans and two non-albicans species. C. albicans ATCC 14053 was obtained from the University Of Calgary, Department Of Biological Sciences. C. tropicalis 99916 and C. glabrata 14326 were obtained from the dialysate of patients undergoing continued ambulatory peritoneal dialysis (CAPD). Aspergillus fumigatus was also tested.
(§2) Biofilm susceptibility testing uses the pegged lid of the assembly, now containing biofilms formed after rocking in the tray for 24 hour. Each peg on the lid was gently washed once in 200 μl of phosphate buffered saline solution (PBSS) in a 96-well microtiter plate (Falcon). The pegged lid was then transferred to another 96 well microtiter plate containing 2 fold dilutions antifungal agent in 200 μl of RPMI 1640 (Sigma, St. Louis, Mo.) or RPMI 1640 containing 1% DMSO (see test drug section). After the pegs were exposed to the drugs for 24 hours, the pegged lid was removed and gently rinsed twice in saline. The pegged lid was then placed on a 96 well plate containing RPMI 1640 recovery medium. The pegs were sonicated for 5 minutes (Candida spp.) or 7 minutes (Aspergillus) in an ultrasonicator to dislodge adherent cells into the recovery medium. Aliquots of 20 μl of the recovery medium were spot plated on SDA (Candida spp) or Rose Bengal Agar (A. fumigatus) to obtain the MBEC. The assembly was also used to determine the minimum inhibitory concentration (MIC) and minimum fungicidal concentration (MFC). The turbidity of the wells that contained the antibiotic and planktonic cells which were shed from the biofilm was measured at 650 nm to obtain the MIC. A 20 μl sample from each well was also spot plated onto Sabouraud Dextrose agar (Candida spp) or Rose Bengal Agar (A. fumigatus) to obtain the MFC.
Minimum Inhibitory Concentrations (MIC) and Minimum Fungicidal Concentrations (MFC) were determined according to the guidelines of the National Committee for Clinical laboratory Standards (NCCLS). Briefly, Candida sp. were maintained on polystyrene spheres at −70° C. until plating. These organisms were streaked onto Sabouraud Dextrose agar (Microbiologie) plates 24 hours before test initiation. The 24 hour colonies were picked from the agar plates and placed in Muellar-Hinton Broth (MHB, Microbiologie) such that the turbidity matched a McFarland standard of 0.5. This was then diluted 1:10 in MHB to obtain a suspension of approximately 1×10^5 to 5×10^5 CFU/ml. A 5 μl volume of this suspension was added to wells containing 200 μl of antifungal agent serially diluted in RPMI 1640 media (Sigma) in a 96 well microtiter plate (Nunclon). A. fumigatus was maintained as a spore suspension at 4° C. until testing. The spore suspension (50 μl) was diluted into 250 ml of TSB, and 5 μl of this suspension was added to each test well containing dilution of antifungal agent as above.
The test wells were then incubated at 37° C. for 24 hours with the antifungal drugs. MICs for Candida were obtained after incubation by reading the turbidity at 650 nm on a microtiter plate reader (Softmax, VWR). A 20 μl aliquot of each well was also plated (SDA) and MFCs obtained from them after 24 hours incubation at 37° C. MFCs were determined for Aspergillus by plating 100 μl from each well onto Rose Bengal Agar, followed by spreading with a sterile glass spreader. The plated organisms were maintained at 25° C. for three days before colony enumeration.
Drugs tested. Itraconazole, Fluconazole, and Ketoconazole were obtained from Janssen Pharmaceuticals in Brussels, Belgium. Nystatin 5-Fluorocytosine, Griseofulvin, Amphotericin B and Polymyxin B were obtained from Sigma Chemical Co, St. Louis, Mo. 5-Fluorocytosine, polymyxin B sulphate and nystatin were dissolved in double-distilled water to a concentration of 10.24 mg/ml and diluted in the test wells through a range of 1024 μg/ml to 0.125 μg/ml in RPMI. […]

[2] = tested on: planktonic P. aeruginosa; assay: Pseudomonas aeruginosa biofilm assay kit, planktonic MIC reading of challenge plate (Example 8); conditions: challenge 24 hours at 35° C.; breakpoint concentrations
[3] = tested on: Pseudomonas aeruginosa (Ps) planktonic bacteria; assay: MBEC assay, planktonic Ps isolates (Example 5)
[4] = tested on: P. aeruginosa biofilm; assay: Pseudomonas aeruginosa biofilm assay kit, biofilm MBEC reading of recovery plate (Example 8); conditions: challenge 24 hours at 35° C.; recovery 20 to 24 hours; breakpoint concentrations
[5] = tested on: Pseudomonas aeruginosa (Ps) biofilm; assay: MBEC assay, Ps biofilms (Example 5); conditions: number of resistant isolates; 12 isolates from Cystic Fibrosis patients; exposed 24 hours
[6] = tested on: Staphylococcus aureus (Staph) planktonic bacteria; assay: MBEC assay, planktonic Staph isolates (Example 5); conditions: number of resistant isolates; 12 isolates from device associated infections; exposed 24 hours
[7] = tested on: planktonic Staphylococcus aureus; assay: Staphylococcus test plate, planktonic forms (Example 9); conditions: breakpoint concentrations, number in the label is the concentration tested
[8] = tested on: Staphylococcus aureus biofilm; assay: Staphylococcus test plate, biofilm forms (Example 9); conditions: breakpoint concentrations; number in the label is the concentration tested
[9] = tested on: Staphylococcus aureus (Staph) biofilm; assay: MBEC assay, Staph biofilms (Example 5); conditions: number of resistant isolates; 12 isolates from device associated infections; exposed 24 hours
[10] = tested on: Candida biofilms; assay: Minimum biofilm eradication concentration assay, Candida spp. biofilms; conditions: biofilm (sessile) Candida
Procedure: as §1
Biofilm formation and measurement of antimicrobial sensitivity of Candida and Aspergillus biofilms were performed using an assembly of the present invention. The device features a microtiter plate lid with 96 pegs or projections distributed on the lid. Each peg provided the surface for microorganism to adhere, colonize and form a uniform biofilm. The pegs fit precisely into the wells of a standard 96-well microtiter plate. The lid was used in conjunction with a base having special troughs for growing, washing, and incubating fungi. Colonies of Candida sp. were picked from 24 hour cultures on Sabouraud Dextrose agar (SDA) (BBL Microbiological Systems, Cockeysville, Md.) and placed into Mueller-Hinton Broth (MHB) (Difco Laboratories, Detroit Mich.) such that the suspension matched a McFarland standard of 1.0. This suspension was then diluted 1:30 in MHB, and 25 ml were pipetted into the trough chamber of the base. The closed assembly (lid with pegs positioned on the base) was placed on a Hoeffer Red Rocker (VWR, Scientific) set to rock the plates 3.5 cycles per minute in a 37° C. incubator. C. albicans and C. tropicalis were incubated aerobically, while C. glabrata was incubated in 10% CO2. It was determined in preliminary experiments that C. glabrata required 10% CO2 atmosphere for biofilms to form.
as §2
Drugs tested. Itraconazole, Fluconazole, and Ketoconazole were obtained from Janssen Pharmaceuticals in Brussels, Belgium. Nystatin 5-Fluorocytosine, Griseofulvin, Amphotericin B and Polymyxin B were obtained from Sigma Chemical Co, St. Louis, Mo. […]

[11] = number of resistant isolates, 12 isolates from Cystic Fibrosis patients, exposed 24 hours

Compound | effectiveness in killing planktonic Candida cells [1] | Number of P. aeruginosa isolates resistant to individual antibiotics and antibiotic combinations, Planktonic [2] | Ps resistance to individual antibiotics and antibiotic combinations, Planktonic [3, 11] | Number of P. aeruginosa isolates resistant to individual antibiotics and antibiotic combinations, Biofilm [4] | Ps resistance to individual antibiotics and antibiotic combinations, Biofilm [5] | also measured
Nc1nc(=O)[nH]cc1F [5-fluorocytosine, 5-Fluorocytosine] | effective | – | – | – | – | –
NCC[C@H](O)C(=O)N[C@@H]1C[C@H](N)[C@@H](O[C@H]2O[C@H](CN)[C@@H](O)[C@H](O)[C@H]2O)[C@H](O)[C@H]1O[C@H]1O[C@H](CO)[C@@H](O)[C@H](N)[C@H]1O [AK, amikacin] | – | 8 | 8 | 11 | 11 | –
C[C@H]1[C@H](NC(=O)/C(=N\OC(C)(C)C(=O)O)c2csc(N)n2)C(=O)N1S(=O)(=O)O [AZTR, aztreonam] | – | 0 | – | – | – | Ps resistance to individual antibiotics and antibiotic combinations, Planktonic [3]: 0
CC(C)(O/N=C(\C(=O)N[C@@H]1C(=O)N2C(C(=O)[O-])=C(C[n+]3ccccc3)CS[C@H]12)c1csc(N)n1)C(=O)O [CFTZ, ceftazidime] | – | 3 | 3 | 12 | 12 | –
Cc1nnc(SCC2=C(C(=O)O)N3C(=O)[C@@H](NC(=O)Cn4cnnn4)[C@H]3SC2)s1 [CFZ, cefazolin] | – | – | – | – | – | Staph resistance to individual antibiotics and antibiotic combinations, Planktonic [6]: 2; Number of Staphylococcus aureus isolates resistant to individual antibiotics and antibiotic combinations, Planktonic ([7]; listed as CFZ4): 4; Number of Staphylococcus aureus isolates resistant to individual antibiotics and antibiotic combinations, Planktonic ([7]; listed as CFZ8): 6
O=C(O)c1cn(C2CC2)c2cc(N3CCNCC3)c(F)cc2c1=O [CIPRO, ciprofloxacin] | – | 4 | – | – | – | Staph resistance to individual antibiotics and antibiotic combinations, Planktonic [6]: 10; Number of Staphylococcus aureus isolates resistant to individual antibiotics and antibiotic combinations, Planktonic [7]: 7; Ps resistance to individual antibiotics and antibiotic combinations, Planktonic [3]: 4
CCC[C@@H]1C[C@@H](C(=O)N[C@@H]([C@H]2O[C@H](SC)[C@H](O)[C@@H](O)[C@H]2O)[C@H](C)Cl)N(C)C1 [CLIN, clindamycin] | – | – | – | – | – | Staph resistance to individual antibiotics and antibiotic combinations, Planktonic [6]: 9; Number of Staphylococcus aureus isolates resistant to individual antibiotics and antibiotic combinations, Planktonic ([7]; listed as CLI1): 8; Number of Staphylococcus aureus isolates resistant to individual antibiotics and antibiotic combinations, Planktonic ([7]; listed as CLI4): 5
Cc1onc(-c2ccccc2Cl)c1C(=O)N[C@@H]1C(=O)N2[C@@H]1SC(C)(C)[C@@H]2C(=O)O [CLOX, cloxacillin] | – | – | – | – | – | Staph resistance to individual antibiotics and antibiotic combinations, Planktonic [6]: 3; Number of Staphylococcus aureus isolates resistant to individual antibiotics and antibiotic combinations, Biofilm [8]: 12; Number of Staphylococcus aureus isolates resistant to individual antibiotics and antibiotic combinations, Planktonic [7]: 2; Staph resistance to individual antibiotics and antibiotic combinations, Biofilm [9]: 12
COC1=CC(=O)C[C@@H](C)[C@]12Oc1c(Cl)c(OC)cc(OC)c1C2=O [Griseofulvin] | ineffective | – | – | – | – | effectiveness against Candida growing as a biofilm [10]: ineffective
C[C@@H](O)[C@H]1C(=O)N2C(C(=O)O)=C(SCCN=CN)C[C@H]12 [IMP, imipenem] | – | 12 | 12 | 12 | 12 | –
NC[C@H]1O[C@H](O[C@H]2[C@H](O)[C@@H](O[C@H]3O[C@H](CO)[C@@H](O)[C@H](N)[C@H]3O)[C@H](N)C[C@@H]2N)[C@H](N)C[C@@H]1O [TB, tobramycin] | – | 3 | 3 | 12 | 12 | –
CC(=O)N1CCN(c2ccc(OCC3COC(Cn4ccnc4)(c4ccc(Cl)cc4Cl)O3)cc2)CC1 (centres unmarked) [ketoconazole, Ketoconazole] | effective | – | – | – | – | –
C[C@@H]1[C@H](O)[C@@H](C)/C=C/C=C/CC/C=C/C=C/C=C/C=C/C(O[C@H]2O[C@H](C)[C@@H](O)[C@H](N)[C@@H]2O)CC2O[C@](O)(CC(O)C(O)CCC(O)CC(O)CC(O)CC(=O)O[C@H]1C)CC(O)C2C(=O)O (some centres unmarked) [nystatin, Nystatin] | effective | – | – | – | – | effectiveness against Candida growing as a biofilm [10]: effective; also recorded: most effective agents
Colistin [CLO] | – | 2 | 2 | 12 | 12 | –
Polymyxin B | ineffective | – | – | – | – | effectiveness against Candida growing as a biofilm [10]: ineffective

Reference: patent US20080318268A1, “Devices and Methods for the Selection of Agents with Efficacy Against Biofilm” (priority 2005, published 2008)
